Data: US9573953B2, “Heteroaromatic compounds as PI3 kinase modulators and methods of use” (CALITOR SCIENCES, LLC, priority 2013, dated 2017)

What was measured:
[1] = Pharmacokinetic profiles in rats; type: in vivo; conditions: for F: iv dose 2 mg/kg, oral dose generally 5 or 10 mg/kg; for Cl/F / AUC(0-t) / half-life / Vd: iv dosing, 2 mg/kg; for AUC(0-t) / half-life / Vd: rat, plasma; for Vd: read-out: Vss
Experimental: The compounds disclosed herein are assessed in pharmacokinetic studies in mice, rats, dogs or monkeys. The compounds are administered as a water solution, 2% HPMC+1% TWEEN®80 in water solution, 5% DMSO+5% solutol in saline, 4% MC suspension or capsule. For the intravenous administration, the animals are generally given at 1 or 2 mg/kg dose. For the oral (p.o.) dosing, mice and rats are generally given 5 or 10 mg/kg dose, and dogs and monkeys are generally given 10 mg/kg dose. The blood samples (0.3 mL) are drawn at 0.25, 0.5, 1.0, 2.0, 3.0, 4.0, 6.0, 8.0, 12 and 24 h time points or 0.083, 0.25, 0.5, 1.0, 2.0, 4.0, 6.0, 8.0 and 24 h time points and centrifuged at 3,000 or 4000 rpm for 2 to 10 min. The plasma solutions are collected and stored at −20° C. or −70° C. until analyzed by LC/MS/MS as described above.

mTOR (h) = molecular target: T1, mTOR (h) (Homo sapiens, UniProt P42345); assay: mTOR (h) kinase assay; type: biochemical
T1 construct: purchased Millipore UK Ltd (assays run there as a service)
Experimental: mTOR (h) is incubated with 50 mM HEPES pH 7.5, 1 mM EDTA, 0.01% TWEEN®20, 2 mg/mL substrate, 3 mM Manganese Chloride and [γ-^33P-ATP] (specific activity approx. 500 cpm/pmol, concentration as required). The reaction is initiated by the addition of the MnATP mix. After incubation for 40 minutes at room temperature, the reaction is stopped by the addition of 3% phosphoric acid solution. Aliquote of the reaction (10 μL) is then spotted onto a P30 filtermat and washed three times for 5 minutes in 75 mM phosphoric acid and once in methanol prior to drying and scintillation counting.
(§1) The kinase assays described herein were performed at Millipore UK Ltd, Dundee Technology Park, Dundee DD2 1SW, UK.

PI3K (p110δ/p85α) (h) = molecular target: T2, PI3K (p110δ/p85α) (h) (Homo sapiens, UniProt O00329); assay: PI3K (p110δ/p85α) (h) non-radioactive (HTRF) assay; type: biochemical
T2 construct: purchased Millipore UK Ltd (assays run there as a service)
Experimental: PI3K (p110δ/p85α) (h) [Non-Radioactive Assay]
(§2) PI3K (p110δ/p85α) (h) is incubated in assay buffer containing 10 μM phosphatidylinositol-4,5-bisphosphate and MgATP (concentration as required). The reaction is initiated by the addition of the MgATP mix. After incubation for 30 minutes at room temperature, the reaction is stopped by the addition of stop solution containing EDTA and biotinylated phosphatidylinositol-3,4,5-trisphosphate. Finally, detection buffer is added, which contains europium-labelled anti-GST monoclonal antibody, GST-tagged GRP1 PH domain and streptavidin-allophycocyanin. The plate is then read in time-resolved fluorescence mode and the homogenous time-resolved fluorescence (HTRF) signal is determined according to the formula HTRF=10000×(Em665 nm/Em620 nm).
as §1

PI3K (p120γ) (h) = molecular target: T3, PI3K (p120γ) (h) (Homo sapiens, UniProt P48736); assay: PI3K (p120γ) (h) non-radioactive (HTRF) assay; type: biochemical
T3 construct: purchased Millipore UK Ltd (assays run there as a service)
Experimental: PI3K (p120γ) (h) [Non-Radioactive Assay]
as §2, with “(p120γ)” for “(p110δ/p85α)”
as §1

U87MG glioblastoma cells = assay: Tumor xenograft model (U87MG), tumor growth inhibition; type: in vivo, mice; conditions: oral gavage
Experimental: The efficacy of compounds disclosed herein was evaluated in a standard murine model of tumorigenesis. Human tumor cells (U87MG glioblastoma cells from ATCC) were expended in culture, harvested, and injected subcutaneously onto the rear flank of 6-7 week old female athymic nude mice (BALB/cA nu/nu, Hunan SLAC Laboratory Animal, Co.) (n=6-10 for vehicle group and for each dosing group). When tumors reached a volume of 100-250 mm^3, animals were randomly divided into vehicle control (for example, 5% DMSO+70% CAPTISOL® (30%), 7% HCl (pH1), 18% CAPTISOL® (30%); or 7% DMSO, 7% HCl (pH1), 70% CAPTISOL® (30%), 16% CAPTISOL® (30%), or the like) and compound groups. Subsequent administration of compound by oral gavage begins anywhere from day 0 to day 15 post tumor cell challenge and generally continues with once a day for the duration of the experiment.
Progression of tumor growth is assessed by tumor volumes and recorded as a function of time. The long (L) and short (W) axes of the subcutaneous tumors were measured with calipers twice weekly, and the tumor volume (TV) calculated as (L×W^2)/2). TGI was calculated from the difference between the median tumor volumes of vehicle-treated and drug-treated mice, expressed as a percentage of the median tumor volume of the vehicle-treated control group, by the following relation:
Initial statistical analysis is done by repeated measures analysis of variance (RMANOVA), followed by Scheffe post hoc testing for multiple comparisons. Vehicle alone (5% DMSO+70% CAPTISOL® (30%), 7% HCl (pH1), 18% CAPTISOL® (30%); or 7% DMSO, 7% HCl (pH1), 70% CAPTISOL® (30%), 16% CAPTISOL® (30%), or the like) is the negative control.

T2 sequence (O00329 whole entry): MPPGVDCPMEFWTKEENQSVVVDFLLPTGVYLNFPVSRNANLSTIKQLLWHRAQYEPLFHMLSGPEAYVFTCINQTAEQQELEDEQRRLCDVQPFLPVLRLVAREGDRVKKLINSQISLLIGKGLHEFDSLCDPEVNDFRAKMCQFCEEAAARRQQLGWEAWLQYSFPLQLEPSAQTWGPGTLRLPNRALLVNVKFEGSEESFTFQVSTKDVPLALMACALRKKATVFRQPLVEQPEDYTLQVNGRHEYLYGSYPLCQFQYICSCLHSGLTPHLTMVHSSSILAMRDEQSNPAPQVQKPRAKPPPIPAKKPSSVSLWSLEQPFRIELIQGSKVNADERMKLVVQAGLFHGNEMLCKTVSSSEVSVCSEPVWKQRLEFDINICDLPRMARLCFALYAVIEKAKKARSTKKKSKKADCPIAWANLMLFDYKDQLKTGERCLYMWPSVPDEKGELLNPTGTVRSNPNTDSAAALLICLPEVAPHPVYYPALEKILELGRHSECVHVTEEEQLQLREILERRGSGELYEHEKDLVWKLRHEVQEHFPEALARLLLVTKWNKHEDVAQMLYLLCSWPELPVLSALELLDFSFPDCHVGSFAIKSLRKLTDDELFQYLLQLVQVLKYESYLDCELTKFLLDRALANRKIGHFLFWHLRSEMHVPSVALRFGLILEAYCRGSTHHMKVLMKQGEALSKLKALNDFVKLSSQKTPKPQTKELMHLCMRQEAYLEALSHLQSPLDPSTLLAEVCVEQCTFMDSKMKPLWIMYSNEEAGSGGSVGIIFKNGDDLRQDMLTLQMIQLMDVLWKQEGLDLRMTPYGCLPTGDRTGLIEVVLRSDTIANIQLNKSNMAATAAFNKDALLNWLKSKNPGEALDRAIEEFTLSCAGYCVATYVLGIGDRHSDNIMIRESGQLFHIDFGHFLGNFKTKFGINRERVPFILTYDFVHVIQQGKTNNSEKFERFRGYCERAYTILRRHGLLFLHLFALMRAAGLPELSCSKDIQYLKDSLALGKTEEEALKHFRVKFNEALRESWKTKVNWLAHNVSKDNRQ
T2 sequence (P27986 whole entry partner): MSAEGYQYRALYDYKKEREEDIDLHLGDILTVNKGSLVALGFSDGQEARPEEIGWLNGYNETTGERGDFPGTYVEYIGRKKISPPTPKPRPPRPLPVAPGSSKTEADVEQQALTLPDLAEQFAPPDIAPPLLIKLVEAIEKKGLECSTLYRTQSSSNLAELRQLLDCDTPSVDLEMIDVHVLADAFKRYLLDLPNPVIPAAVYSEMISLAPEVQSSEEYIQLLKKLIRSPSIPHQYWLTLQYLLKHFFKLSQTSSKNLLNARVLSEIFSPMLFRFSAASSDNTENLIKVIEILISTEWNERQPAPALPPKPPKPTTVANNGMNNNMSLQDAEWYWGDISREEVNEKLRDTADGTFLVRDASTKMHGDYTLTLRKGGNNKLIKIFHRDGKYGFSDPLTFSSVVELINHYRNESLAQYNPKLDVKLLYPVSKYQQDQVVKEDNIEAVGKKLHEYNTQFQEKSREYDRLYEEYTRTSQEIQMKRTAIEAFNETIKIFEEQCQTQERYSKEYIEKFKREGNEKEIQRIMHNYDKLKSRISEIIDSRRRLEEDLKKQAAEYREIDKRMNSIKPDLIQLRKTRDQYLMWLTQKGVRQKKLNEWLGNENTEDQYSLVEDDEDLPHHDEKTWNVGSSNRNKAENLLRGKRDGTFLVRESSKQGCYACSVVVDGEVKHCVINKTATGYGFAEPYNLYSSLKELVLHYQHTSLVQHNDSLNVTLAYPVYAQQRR
T3 sequence (P48736 whole entry): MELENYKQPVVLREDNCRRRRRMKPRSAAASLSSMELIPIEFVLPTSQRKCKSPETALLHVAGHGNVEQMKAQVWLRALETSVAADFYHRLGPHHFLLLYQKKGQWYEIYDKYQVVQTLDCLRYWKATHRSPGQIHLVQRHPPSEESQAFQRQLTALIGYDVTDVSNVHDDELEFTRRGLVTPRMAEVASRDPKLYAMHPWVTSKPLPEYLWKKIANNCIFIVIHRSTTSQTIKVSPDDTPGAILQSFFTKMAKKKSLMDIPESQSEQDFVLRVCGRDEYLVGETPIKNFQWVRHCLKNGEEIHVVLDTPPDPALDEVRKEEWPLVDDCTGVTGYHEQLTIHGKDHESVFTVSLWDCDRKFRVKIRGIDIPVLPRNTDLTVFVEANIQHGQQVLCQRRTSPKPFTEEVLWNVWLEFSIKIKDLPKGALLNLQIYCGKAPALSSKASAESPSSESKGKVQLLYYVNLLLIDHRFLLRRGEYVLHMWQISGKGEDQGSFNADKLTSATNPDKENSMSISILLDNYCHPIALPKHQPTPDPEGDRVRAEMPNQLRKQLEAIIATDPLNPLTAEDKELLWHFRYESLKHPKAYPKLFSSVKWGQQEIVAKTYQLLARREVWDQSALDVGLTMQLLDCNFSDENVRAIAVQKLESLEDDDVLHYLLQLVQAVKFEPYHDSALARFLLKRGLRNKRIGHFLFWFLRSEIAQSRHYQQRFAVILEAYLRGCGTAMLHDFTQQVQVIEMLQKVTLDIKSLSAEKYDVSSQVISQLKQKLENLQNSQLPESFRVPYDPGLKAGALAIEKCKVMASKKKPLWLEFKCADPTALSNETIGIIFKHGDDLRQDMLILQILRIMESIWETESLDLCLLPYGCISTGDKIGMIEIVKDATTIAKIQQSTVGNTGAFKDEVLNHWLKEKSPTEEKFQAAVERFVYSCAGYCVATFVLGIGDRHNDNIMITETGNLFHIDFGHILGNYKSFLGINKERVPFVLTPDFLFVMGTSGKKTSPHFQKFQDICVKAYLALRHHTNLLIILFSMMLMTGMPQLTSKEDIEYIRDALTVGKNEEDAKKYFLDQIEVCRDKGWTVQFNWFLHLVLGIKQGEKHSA

| F [1] | Cl/F [1] | AUC(0-t) [1] | half-life [1] | Vd [1] | IC50 (mTOR (h)) | IC50 (PI3K (p110δ/p85α) (h)) | IC50 (PI3K (p120γ) (h)) | SMILES | TGI % U87MG (U87MG glioblastoma cells; 1 mg/kg, 13 days) | TGI % U87MG (U87MG glioblastoma cells; 3 mg/kg, 13 days) | TGI % U87MG (U87MG glioblastoma cells; 10 mg/kg, 13 days) | TGI % U87MG (U87MG glioblastoma cells; 1 mg/kg, 12 days) | TGI % U87MG (U87MG glioblastoma cells; 3 mg/kg, 12 days) | TGI % U87MG (U87MG glioblastoma cells; 0.3 mg/kg, 13 days) | TGI % U87MG (U87MG glioblastoma cells; 10 mg/kg, 12 days) |
| --- | --- | --- | --- | --- | --- | --- | --- | --- | --- | --- | --- | --- | --- | --- | --- |
| 91.75% | 4.67 mL/min/kg | 7350 ng·h/mL | 1.93 h | 0.48 L/kg | 4 nM | 1 nM | 15 nM | COc1ncc(-c2ccn3ncc(C#CCO)c3c2)cc1NS(=O)(=O)c1ccc(F)cc1F [Ex. 4, 2,4-difluoro-N-(5-(3-(3-hydroxyprop-1-yn-1-yl)pyrazolo[1,5-a]pyridin-5-yl)-2-methoxypyridin-3-yl)benzenesulfonamide] | 32% | 53% | 89% | – | – | – | – |
| 69.48% | 4.33 mL/min/kg | 7720 ng·h/mL | 3.7 h | 0.8 L/kg | 4 nM | 5 nM | 5 nM | COc1ncc(-c2ccn3ncc(C#N)c3n2)cc1NS(=O)(=O)c1ccc(F)cc1F [Ex. 2, N-(5-(3-cyanopyrazolo[1,5-a]pyrimidin-5-yl)-2-methoxypyridin-3-yl)-2,4-difluorobenzenesulfonamide] | – | – | – | 59% | 76% | – | – |
| 94.75% | 4.83 mL/min/kg | 7070 ng·h/mL | 2.77 h | 0.85 L/kg | 4 nM | 2 nM | 6 nM | COc1ncc(-c2ccn3ncc(C#N)c3c2)cc1NS(=O)(=O)c1ccc(F)cc1F [Ex. 3, N-(5-(3-cyanopyrazolo[1,5-a]pyridin-5-yl)-2-methoxypyridin-3-yl)-2,4-difluorobenzenesulfonamide] | 70% | 95% | – | – | – | 26% | – |
| 102.00% | 2.83 mL/min/kg | 12100 ng·h/mL | 3.93 h | 0.32 L/kg | 9 nM | 5 nM | 6 nM | COc1ncc(-c2ccn3ncc(C#CCO)c3n2)cc1NS(=O)(=O)c1ccc(F)cc1F [Ex. 1, 2,4-difluoro-N-(5-(3-(3-hydroxyprop-1-yn-1-yl)pyrazolo[1,5-a]pyrimidin-5-yl)-2-methoxypyridin-3-yl)benzenesulfonamide] | – | – | – | 26% | 37% | – | 68% |
